# From article PMC4977052, “On the Utility of ToxCast™ and ToxPi as Methods for Identifying New Obesogens” (Environmental Health Perspectives, 2016)
# Several values for one entry are separate records, joined by “and”; a condition that tells them apart may be missing. Equal values may be shown once. Entries after “also recorded” stand apart in the source; their conditions may differ. Read-outs that look alike come from different tables or passages of the source.
# Tests used:
# [1] = tested on: PPARγ; conditions: cited from earlier work
# [2] = tested on: 3T3-L1 preadipocytes; test: 3T3-L1 adipogenesis assay (lipid accumulation, adipogenic gene expression); type: cell-based; conditions: 0.02-20 μM, 5 days after MDI induction
# Experimental: 3T3-L1 cells (ATCC) were maintained in high-glucose DMEM supplemented with 10% fetal bovine serum, 2 mM L-glutamine, 50 IU/mL penicillin, and 50 μg/mL streptomycin. A total of 2 × 10^4 cells per well were seeded in 12-well plates. After 48 hr, cells were exposed to the adipogenic cocktail MDI (500 μM isobutylmethylxanthine, 0.25 nM dexamethasone and 5 μg/mL insulin), 8 μg/mL biotin and 8 μg/mL pantothenate for 2 days. Induction media was removed and cells were exposed to test chemicals during 5 days, replacing the media every 2 days. Rosiglitazone (ROSI) and tributyltin (TBT) were used as positive controls at 100 nM and 50 nM final concentrations, respectively. All ToxCast™ chemicals were tested at 0.02, 0.2, 2, and 20 μM, and DMSO concentration was maintained at 0.1% across all treatments. If the chemical was toxic at 20 μM, we repeated the experiment at 10 μM.
# Cells were either fixed in 3.7% formaldehyde in phosphate-buffered saline (PBS) for 30 min at room temperature (RT) for lipid quantitation, or homogenized in TriPure (Roche, Mannheim, Germany) for gene expression analysis. For lipid quantitation, fixed cells were washed twice with PBS and maintained in PBS overnight at 4°C to release residual phenol red. Background of cells were measured prior to staining. Cells were stained with 1 μg/mL Nile red (CAS No. 7385-67-3) (to detect lipid accumulation) and 1 μg/mL Hoechst 33342 (ThermoFisher Scientific) (to detect nuclei as a surrogate for cell number) in PBS for 15 min in the dark at RT and washed twice with PBS. […] Background values of Hoechst and Nile red were subtracted from the RFUs after staining and the ratio RFUNile Red:RFUHoechst was calculated. Data are represented as mean ± SEM. Total RNA was isolated using TriPure (Roche) as recommended by the manufacturer. Reverse transcription and quantitative real-time RT-PCR (QPCR) were performed using Transcriptor RT and SYBR® Green Master Mix (Roche). cDNA was quantitated in a LightCycler® 480 System (Roche Diagnostics, Basel, Switzerland) using primer sets listed in Table S4. Each primer set amplified a single band as determined by gel electrophoresis and melting curve analysis. QPCR data were analyzed using the 2^ΔΔCt method ([Livak and Schmittgen 2001]) relative to ribosomal protein 36b4, normalizing to 0.1% DMSO vehicle. Error bars represent the SEM from four to six biological replicates calculated using standard propagation of error ([Bevington and Robinson 2003]).
# [3] = molecular target: T1, GAL4-mPPARγ (Mus musculus, UniProt P37238); test: GAL4-mPPARγ activation, transient transfection luciferase reporter in COS7 cells; type: cell-based; conditions: for Activation of GAL4-PPARγ (text): COS7, 100 μM through 0.137 μM
# T1 construct: expressed in transfected cells; host or cells: COS7
# Experimental: (§1) pCMX-Gal4, pCMX-Gal4-mPPARγ, and pCMX-Gal4-hRXRα were previously described ([Grün et al. 2006]). Transient transfections were performed in COS7 cells as described ([Chamorro-García et al. 2012]). Briefly, COS7 cells were seeded at 15,000 cells per well in 96-well tissue culture plates in 10% calf bovine serum. The following day, cells were transfected in Opti-MEM at ~ 90% confluency. One microgram of CMX-GAL4 effector plasmid was co-transfected with 5 μg tk-(MH100)4-luciferase reporter and 5 μg of CMX-β-galactosidase transfection control plasmids in Opti-MEM® using Lipofectamine® 2000 reagent (Invitrogen™ Life Technologies, Carlsbad, CA, USA), following the manufacturer’s recommended protocol. All chemicals were solvated in dimethyl sulfoxide (DMSO). After overnight incubation, the medium was replaced with Dulbecco’s Modified Eagle Medium (DMEM; HyClone, Logan, UT, USA), 10% resin charcoal stripped fetal bovine serum (FBS) plus ligands at concentrations indicated in the figure legends for an additional 24 hr. DMSO concentration was maintained at 0.05% across all chemical treatments. Cells were lysed and assayed for luciferase and β-galactosidase activity as previously described ([Forman et al. 1995]). All transfections were performed in triplicate and reproduced in multiple experiments. Data are reported as fold induction or reduction over vehicle ([…]) controls ± SEM (standard error of the mean) using standard propagation of error ([Bevington and Robinson 2003]). […] The EC50, EC10, IC50, and IC10 values from NCGC and ToxCast™ are reported from gain AC50 and AC10 values in the ToxCast™ 2014 release ([Filer et al. 2014]).
# (§2) Figure 1 ToxCast™ Chemical Activity on PPARγ. The ability of a graded dose series of ToxCast™ chemicals to (A) activate or (B) antagonize GAL4-mPPARγ was tested in transiently transfected COS7 cells. (A, B) Data points are averages of triplicate transfections (three biological replicates). […] Data are depicted as (A) fold induction or (B) reduction over vehicle (0.05% DMSO) controls ± SEM. (A) ToxCast™ chemicals were tested in 3-fold serial dilutions from 100 μM through 0.137 μM, with the final data point being 0.05% DMSO. Rosiglitazone serves as a positive control activator. (B) ToxCast™ chemicals were tested in 3-fold serial dilutions from 100 μM, in competition with 50 nM rosiglitazone (Rosi). […] (C) EC50, EC10, IC50, and IC10 values calculated from A and B are reported and compared to commercial assays (see Figure S1). Note: ATG, Attagene GAL-PPARγ activation assay; NCGC, GeneBLAzer® agonist (EC values) or antagonist (IC values) assays. Triphenyltin was previously published ([Kanayama et al. 2005]).
# (§3) Figure 4 ToxPi Chemical Activity on PPARγ and RXRα. The ability of a graded dose series of ToxPi chemicals to activate (A) GAL4-mPPARγ or (B) GAL4-hRXRα was tested in transiently transfected COS7 cells. (A, B) Data points are averages of triplicate transfections (three biological replicates). […] ToxPi chemicals were tested in 3-fold serial dilutions from 100 μM through 0.137 μM, with the final data point being 0.05% DMSO. Data are depicted as fold induction over vehicle (0.05% DMSO) controls ± SEM. (A) Rosiglitazone serves as a positive control activator for GAL4-mPPARγ. (B) LG100268 (2-[1-(3,5,5,8,8-Pentamethyl-5,6,7,8-tetrahydro-2-naphthyl)cyclopropyl]pyridine-5-carboxylic acid) serves as a positive control activator for GAL4-hRXRα. (C) EC50 and EC10 values calculated from A and B are reported and compared to other assays (see Figure S1). ATG, Attagene GAL-PPARγ or GAL-RXRα activation assay; NCGC, GeneBLAzer® GAL-PPARγ or GAL-RXRα activation assays. Triphenyltin was previously published ([Kanayama et al. 2005]).
# [4] = tested on: PPRE; parameters: method as in Knudsen et al. 2011; conditions: ToxCast Phase I 2011 release; NA = not active; ref Knudsen et al. 2011; read-out: ATGC PPRE AC50; cited from earlier work
# [5] = tested on: C/EBP; parameters: method as in Knudsen et al. 2011; conditions: ToxCast Phase I 2011 release; NA = not active; ref Knudsen et al. 2011; read-out: ATGC CEBP AC50; cited from earlier work
# [6] = tested on: LXRβ; parameters: method as in Knudsen et al. 2011; conditions: ToxCast Phase I 2011 release; NA = not active; ref Knudsen et al. 2011; read-out: ATGT LXRβ AC50; cited from earlier work
# [7] = tested on: COS7 cells; test: Cytotoxicity in transfected COS7 cells measured as decreased β-galactosidase activity; conditions: transfected COS7 cells, 24 hr
# Experimental: as §1, §2
# [8] = tested on: PPARγ; parameters: method as in Filer et al. 2014; conditions: ref Filer et al. 2014, cited from earlier work; for AC50: PPARγ, NA = not active, read-out: NCGC Antag. AC50, 2014 Release
# [9] = molecular target: T1, GAL4-mPPARγ; test: GAL4-mPPARγ antagonism in competition with 50 nM rosiglitazone, transiently transfected COS7 cells; type: cell-based
# Experimental: as §1, §2
# [10] = tested on: Human PPARγ; conditions: cited from earlier work
# [11] = molecular target: T2, GAL4-hRXRα (Homo sapiens, UniProt P19793); test: GAL4-hRXRα activation, transient transfection luciferase reporter in COS7 cells; type: cell-based; conditions: COS7, 100 μM through 0.137 μM
# T2 construct: expressed in transfected cells; host or cells: COS7
# Experimental: as §1, §3
# [12] = tested on: LXRα; parameters: method as in Knudsen et al. 2011; conditions: ToxCast Phase I 2011 release; NA = not active; ref Knudsen et al. 2011; read-out: ATGT LXRα AC50; cited from earlier work
# [13] = tested on: PPARγ; conditions: ToxCast 2014 release, ref Filer et al. 2014, cited from earlier work
# [14] = ToxCast Phase I 2011 release, NA = not active, ref Knudsen et al. 2011, read-out: ATGT PPARγ AC50
# [15] = Cos-7 transient transfection, PPARγ or RXRα activation assays (Table 2)
# [16] = PPARγ, NA = not active, ref Filer et al. 2014, read-out: ATG Agonist AC50, 2014 Release
# [17] = PPARγ, NA = not active, ref Knudsen et al. 2011, read-out: ATG Agonist AC50, 2011 Release
# [18] = PPARγ direct binding, NA = not active, ref Filer et al. 2014, read-out: NVS Agonist AC50, 2014 Release
# T1 sequence (P37238 with tags, fused parts or gaps limits assumed): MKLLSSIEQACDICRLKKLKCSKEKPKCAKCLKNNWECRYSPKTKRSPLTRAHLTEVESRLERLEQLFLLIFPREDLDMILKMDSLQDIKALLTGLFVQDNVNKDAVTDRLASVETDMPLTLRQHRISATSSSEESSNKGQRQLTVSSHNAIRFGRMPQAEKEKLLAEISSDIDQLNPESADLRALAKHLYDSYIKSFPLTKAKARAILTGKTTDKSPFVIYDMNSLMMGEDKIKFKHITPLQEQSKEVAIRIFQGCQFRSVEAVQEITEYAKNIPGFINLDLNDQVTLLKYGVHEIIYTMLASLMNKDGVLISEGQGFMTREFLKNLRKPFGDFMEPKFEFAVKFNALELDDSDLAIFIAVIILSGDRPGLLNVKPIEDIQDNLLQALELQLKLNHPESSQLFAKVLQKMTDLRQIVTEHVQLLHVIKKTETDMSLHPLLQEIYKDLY
# T2 sequence (P19793 with tags, fused parts or gaps limits assumed): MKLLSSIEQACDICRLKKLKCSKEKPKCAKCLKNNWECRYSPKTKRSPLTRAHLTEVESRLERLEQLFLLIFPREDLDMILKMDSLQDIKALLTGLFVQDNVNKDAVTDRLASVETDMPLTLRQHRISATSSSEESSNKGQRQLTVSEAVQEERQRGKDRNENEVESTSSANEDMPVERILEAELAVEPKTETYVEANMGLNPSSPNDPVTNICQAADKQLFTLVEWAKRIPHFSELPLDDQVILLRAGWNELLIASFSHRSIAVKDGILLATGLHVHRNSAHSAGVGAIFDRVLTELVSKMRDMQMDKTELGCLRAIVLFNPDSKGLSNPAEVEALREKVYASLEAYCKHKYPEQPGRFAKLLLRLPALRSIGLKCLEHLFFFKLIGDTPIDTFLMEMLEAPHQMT
smiles,measurement,setting,value
CC(C)(C)c1ccc(CSc2cnn(C(C)(C)C)c(=O)c2Cl)cc1 [Pyridaben],"PPARγ agonists: EC10, ATG","[1]; AC10, ToxCast 2014 release, ref Filer et al. 2014",2.57 µM
same,AC50,[1]; [14],14 µM
same,EC50,"[1]; gain AC50, ToxCast 2014 release, ref Filer et al. 2014, read-out: PPARγ agonists: EC50, ATG",10.1 µM
same,Adipogenesis 3T3-L1 (result in words),[2],strongly inhibited adipogenesis; also recorded: Inhibitor
same,AC50,[3],3 µM
same,EC50,[3],2980 nM
same,Activation of GAL4-PPARγ (text),[3],activated PPARγ
same,"PPARγ agonists: EC10, Fig 1A / Fig 4A","[3]; COS7, computed from EC50 in GraphPad Quick Calc",0.53 µM
same,"Activation COS7 (result in words), ToxPi chemicals",[3]; [15],PPARγ activator
same,AC50,[4],1.6 µM
O=C(Nc1ccccc1)Nc1ccnc(Cl)c1 [Forchlorfenuron],AC50,[1]; [14],46 µM
same,AC50,[5],40 µM
same,Adipogenesis 3T3-L1 (result in words),[2],Positive
same,"Activation COS7 (result in words), ToxPi chemicals",[3]; [15],Inactive
same,AC50,[4],26 µM
same,AC50,[6],37 µM
CCc1cccc(CC)c1N(COC)C(=O)CCl [Alachlor],AC50,[1]; [16],2 µM
same,AC50,[1]; [17],3.7 µM
same,Concentration at which cytotoxicity (decreased β-galactosidase activity) was observed,[7],100 µM
same,Adipogenesis 3T3-L1 (result in words),[2],Negative
same,"PPARγ antagonists: IC10, NCGC","[8]; AC10, ToxCast 2014 release",0.15 µM
same,AC50,[8],3.2 µM
same,IC50,"[8]; read-out: PPARγ antagonists: IC50, NCGC, gain AC50, ToxCast 2014 release",3.19 µM
same,Activation of GAL4-PPARγ (text),[3],did not activate PPARγ
same,AC50,"[9]; Activation AC50 (PPARγ antagonists), Cos-7 transient transfection, competition with 50 nM rosiglitazone",4.48 µM
same,Antagonism of PPARγ,"[9]; COS7, competition against 50 nM rosiglitazone",weak antagonists
same,IC50,"[9]; COS7, in competition with 50 nM rosiglitazone",4.48 µM
same,"PPARγ antagonists: IC10, Fig 1B","[9]; COS7, in competition with 50 nM rosiglitazone, computed from IC50",0.78 µM
same,Activation COS7 (result in words): PPARγ antagonist,"[9]; Cos-7 transient transfection, competition with 50 nM rosiglitazone",PPARγ antagonist
same,AC50,[10]; [18],24.9 µM
same,AC50,"[10]; PPARγ direct binding, NA = not active, ref Knudsen et al. 2011, read-out: NVS Agonist AC50, 2011 Release",43 µM
"O=C(O)COc1ccc(Cl)cc1Cl [2,4-D, 2,4-dichlorophenoxyacetic acid]",Activation of RXRα,[11],inactive
Cc1ccc(-c2c(Cl)nc(C#N)n2S(=O)(=O)N(C)C)cc1 [Cyazofamid],AC50,[12],11 µM
same,AC50,[1]; [16],10.1 µM and 9.4 µM
same,AC50,[1]; [17],11 µM
same,AC50,[5],8.7 µM
same,Adipogenesis 3T3-L1 (result in words),[2],Negative
same,AC50,[8],32.3 µM
same,"Activation COS7 (result in words), ToxCast PPARγ list",[3],Inactive
same,"Activation COS7 (result in words), ToxPi chemicals",[3],Inactive
same,AC50,[4],12 µM
same,AC50,[10]; [18],9.6 µM
same,AC50,[6],13 µM
CCc1nn(C)c(C(=O)NCc2ccc(C(C)(C)C)cc2)c1Cl [Tebufenpyrad],AC50,[12],0.36 µM
same,AC50,[1]; [16],2.6 µM
same,AC50,[1]; [17],4.9 µM
same,Adipogenesis 3T3-L1 (result in words),[2],Negative
same,AC50,[8],23.1 µM
same,"Activation COS7 (result in words), ToxCast PPARγ list","[3]; Cos-7 transient transfection, PPARγ activation or antagonism assays (Table 1, Table S6)",Inactive
same,"Activation COS7 (result in words), ToxPi chemicals",[3]; [15],Inactive
same,AC50,[4],0.83 µM
same,AC50,[6],0.46 µM
CCNc1nc(Cl)nc(NC(C)C)n1 [Atrazine],AC50,"[1]; ToxCast 2014 release, ref Filer et al. 2014, read-out: Attagene AC50 (panel A, w/o Z-Score Correction ranking)",15.2 µM
same,AC50,"[1]; ToxCast 2014 release, ref Filer et al. 2014, read-out: Attagene AC50 (panel B, with Z-Score Correction ranking)",15.2 µM
same,Activation of RXRα,[11],inactive
same,Activation of GAL4-PPARγ (text),[3],inactive
same,AC50,"[10]; direct binding, ToxCast 2014 release, ref Filer et al. 2014, read-out: NovaScreen AC50 (panel A)",0.3 µM
same,AC50,"[10]; direct binding, ToxCast 2014 release, ref Filer et al. 2014, read-out: NovaScreen AC50 (panel B)",0.3 µM
same,AC50,[13]; read-out: Tox21/NCGC AC50 (panel A),200 nM
same,AC50,[13]; read-out: Tox21/NCGC AC50 (panel B),200 nM
